Test results reported in patent US9592213B2, “Prophylactic and/or therapeutic agent for dysmenorrhea” (National University Corporation Kumamoto University, priority 2009, dated 2017).
“Also recorded” adds a separate entry of the source.

Key:
[1] = Patient history: adverse effects of earlier drugs in study subjects; assay type: in vivo, human; conditions: Subject I, administration from Mar. 18, 2010
[2] = test system: Immortalized human retinal pigment epithelial cell line ARPE-19; test: Example B1: transition of cell morphology from mesenchymal form to epithelial form after TGFβ2 and TNFα; assay type: cell-based; conditions: tranilast 1 μg/ml added 48 hours after TGFβ2 5 ng/ml and TNFα 100 ng/ml, read after 96 hours
Method: Immortalized human retinal pigment epithelial cell line ARPE-19 (ATCC No.: CRL-2302) was disseminated into a 96-well glass plate (EZView Culture Plate, LB Cover Glass Bottom, 96 wells, Iwaki) at 1×10^4 cells/well followed by culturing at 37° C. in a 5% CO2 environment. After 5 days, 150 μl aliquots each of DMEM-F12 (serum-free, Sigma-Aldrich) medium supplemented by 5 ng/ml of TGFβ2 and 100 ng/ml of TNFα were prepared and used to replace the original medium in the wells and cultured at 37° C. in a 5% CO2 environment.
After 48 hours, the plate was removed from the incubator followed by the addition of tranilast (1 μg/ml) and culturing at 37° C. in a 5% CO2 environment. After 96 hours, the plate was washed with PBS and the cells were fixed for 30 minutes with 4% paraformaldehyde (Wako), and after washing with PBS, were stained for 1 hour with F-actin (Alexa Fluor 568 Phalloidin, Invitrogen) and nuclei (Hoechst 33342, Invitrogen) followed by washing with PBS and then immediately photographing using a fluorescence microscope (Keyence) at a magnification factor of 40×.

EM-E6/E7/hTERT cells = test: Example B2: western blotting of fibronectin and N-cadherin expression in endometrial epithelial cells; assay type: cell-based; conditions: tranilast 320 μM, 80 μM, 20 μM with TGFβ2 5 ng/ml, TNFα 100 ng/ml or both, 48 hours
Method: Cell line EM-E6/E7/hTERT cells (EM) derived from endometrial epithelium were disseminated in a 6-well glass plate (EZView Culture Plate, LB Cover Glass Bottom, 6 wells, Iwaki) at 1×10^5 cells/well, followed by culturing for 2 days at 37° C. in an environment having a carbon dioxide concentration of 5% in DMEM/F12 medium and in the presence of 10% serum, and then culturing for 3 days after replacing the medium with serum-free DMEM/F12 medium.
Subsequently, tranilast (320 μM, 80 μM, 20 μM) was added to medium containing TGFβ2 at 5 ng/ml, TNFα at 100 ng/ml or both followed by replacing the medium. Protein was recovered 48 hours after having replaced the medium with the medium containing TGFβ2 or TNFα, and expression levels of fibronectin and N-cadherin were compared by western blotting.
Anti-fibronectin antibody (clone ID: F14, Epitomics) and anti-N-cadherin antibody (clone ID: 32/N-cadherin, BD Transduction Laboratories) were used for the antibodies.

[3] = Clinical study of therapeutic effect of oral administration of tranilast in dysmenorrhea patients; assay type: in vivo, human
Method: Subject A was given 100 mg of tranilast three times a day by oral administration (300 mg per day, divided three times daily) daily for about six months starting on Sep. 1, 2008.
Menstrual pain was measured according to a numerical rating scale (NRS). In the NRS, the patient was asked to evaluate and record the degree of pain by themself by judging the degree of pain according to 11 levels ranging from level 0 indicating the absence of pain to level 10 indicating maximum pain. Menstrual blood loss was evaluated according to 5 levels ranging from level 0 indicating the absence of blood loss up to level 4 as blood loss increased.
The term “average” in the graphs indicates a value obtained by dividing the total sum of the pain level for each menstrual period by the number of days on which pain was felt.
The term “max” indicates a value of the day when the most intense pain was felt during each menstrual period.
Pain during menstruation was evaluated by the record made for each day by the patient according the 11 levels from level 0 indicating the absence of pain to level 10 indicating maximum pain in the same manner as Subjects A and B, using the NRS method.
The average values and maximum values of NRS scores indicating the intensity of pain during each menstrual period were derived, and the values were compared between the menstrual period at the start of administration and the last menstrual period during the administration period as shown in graphs of FIGS. 8A and 9A. In addition, the degrees of decrease in average values and maximum values for menstrual pain during the last menstrual period relative to the first menstrual period at the start of administration were represented as improvement rates, and are shown in FIGS. 8B and 9B.
Moreover, Subjects A, C, D, E, F and G, but excluding Subject B, underwent examinations at the facility conducting the clinical study at roughly one month intervals during the administration period, and were interviewed by a specialist in the department of gynecology. Interview findings before the start of administration and interview findings at the time of their final visit were compared and are shown in FIG. 10.

[4] = cited from earlier work
[5] = continuous infusion for 3.5 days at 7.5 mg/kg, normal adult; cited from earlier work
[6] = Subject A, organic dysmenorrhea, 100 mg three times a day orally, about six months
[7] = Subject B, August menstrual period, 100 mg/day
[8] = Subject B, September menstrual period, 200 mg/day
[9] = Subject B, after start of administration
[10] = Subject B, functional dysmenorrhea, 100-200 mg/day orally, about six months

SMILES: C[C@]12CCC3=C4CCC(=O)C=C4CC[C@H]3[C@@H]1CC[C@@]2(O)CC#N [dienogest]
- adverse effect in patient history leading to discontinuation [1]: persistent abnormal genital bleeding

SMILES: COc1ccc(C=CC(=O)Nc2ccccc2C(=O)O)cc1OC [Tranilast, N-(3,4-dimethoxycinnamoyl) anthranilic acid]
- cell morphology [2]: exhibited an epithelial form
- foci formed after TGFβ2 and TNFα [2]: alleviated
- expression level of N-cadherin (EM-E6/E7/hTERT cells): inhibited the expression
- expression level of fibronectin (EM-E6/E7/hTERT cells): inhibited the expression
- lower abdominal pain and lower back pain during menstruation (NRS scores) [3, 6]: trend of decrease; also recorded: effects of alleviating lower abdominal pain and lower back pain were observed
- menstrual blood loss [3, 6]: trend of decrease
- adverse side effects from taking tranilast ([3]; Subject B): no adverse side effects
- menstrual blood loss [3, 7]: remained high
- menstrual pain [3, 7]: less menstrual pain
- pain and blood loss sensed by patient ([3]; Subject B, December, 100 mg/day): reduced pain and blood loss
- menstrual blood loss [3, 8]: Reduction
- menstrual pain [3, 8]: Reduction
- duration of menstruation [3, 9]: decreased significantly
- symptoms of menorrhagia [3, 9]: clearly improved
- lower abdominal pain and lower back pain during menstruation (NRS scores) [3, 10]: clearly decrease; also recorded: decrease significantly
- menstrual blood loss [3, 10]: clearly decrease; also recorded: decreased significantly
- pain at menstrual period ([3]; Subject H, organic dysmenorrhea, 100 mg three times per day orally, roughly one month): Pain diminished
- need for analgesic ([3]; Subject H, roughly one month after beginning administration): no longer need to take an analgesic
- menstrual pain and chronic pelvic pain when not menstruating (interview findings) ([3]; Subject I, examination Jun. 4, 2010): diminished and no longer interfered with their job
- pain at first menstrual period after beginning administration ([3]; Subject I, organic dysmenorrhea, 100 mg three times per day orally): the pain diminished
- analgesic use at first menstrual period after beginning administration ([3]; Subject I, before: multiple days with four analgesic tablets per day): one tablet of analgesic per day for 3 days
- pain during menstruation, last menstrual period of administration vs menstrual period at start (NRS average and maximum) ([3]; Subjects A, B, C, D, E, F and G): prominent decreases
- interview findings by gynecological specialist on menstrual pain, final visit vs before start ([3]; Subjects A, C, D, E and F): menstrual pain diminished
- solubility in 1,4-dioxane ([4]; 1,4-dioxane): soluble
- solubility in N,N-dimethylformamide ([4]; N,N-dimethylformamide): freely soluble
- solubility in diethyl ether ([4]; diethyl ether): very slightly soluble
- solubility in ethanol ([4]; ethanol): slightly soluble
- solubility in water ([4]; water): practically insoluble
- Cmax [5]: 2200 ng/mL
